[ ]: non-standard residue; d: D form. Ahx = NCCCCCC(=O)O
Tests used:
H460 lung cancer cells [1] = experiment: Apoptosis in H460 lung cancer cells; format: cell-based
Experimental: Bcl-2 siRNAs and antisense oligonucleotides-The target siRNA SMARTpools for Bcl-2 and Bak and the siRNA oligonucleotide for Nur77 (5'-[…] NO: 67) were purchased from Dharmacon Research Inc. Target or control siRNA were transfected at a final concentration of 200 nM into cells at 40% confluency using Oligofectamine reagent (Invitrogen) according to the manufacturer's recommendations. After 48 h, cells were analyzed. Bcl-2 antisense oligonucleotide targeting Bcl-2 and negative control oligonucleotides were obtained from Calbiochem. […] The percentages of apoptotic cells were determined by counting 300 GFP-positive cells, scoring cells having nuclear fragmentation and/or chromatin condensation. Cell culture. […] HEK293T embryonic kidney cells were grown in DME medium supplemented with 10% FBS. Jurkat and Jurkat cells stably expressing Bcl-2 were kindly provided by Dr. John Reed, and they were maintained in RPMI1640 medium.

Bcl-2 [2] = molecular target: T1, Bcl-2 (Homo sapiens, UniProt P10415); experiment: Immunoprecipitation of endogenous Bcl-2 by anti-Bcl-2/BH3 antibody in treated cells; format: cell-based; parameters: precipitated endogenous Bcl-2 in cells treated with L-NuBCP-9-r8 or D-NuBCP-9-r8; endogenous in cells
Target sequence in this assay (P10415 whole entry, species assumed): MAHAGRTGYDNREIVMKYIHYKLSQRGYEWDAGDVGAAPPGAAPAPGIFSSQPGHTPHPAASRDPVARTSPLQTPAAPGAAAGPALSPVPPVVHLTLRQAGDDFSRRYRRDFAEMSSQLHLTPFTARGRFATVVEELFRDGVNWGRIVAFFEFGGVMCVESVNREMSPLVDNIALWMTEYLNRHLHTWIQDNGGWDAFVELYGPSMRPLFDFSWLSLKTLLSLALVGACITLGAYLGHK

H460 lung cancer cells [3] = experiment: Apoptosis in H460 lung cancer cells; format: cell-based; settings: H460 cells; peptides conjugated with CPP, 10 μM
Bcl-2 [4] = molecular target: T1, Bcl-2; experiment: Bcl-2 conformational change, anti-Bcl-2/BH3 antibody staining of HEK293T cells transfected with Bcl-2; format: cell-based; parameters: expressed in transfected cells; host or cells: HEK293T
Experimental: Such a Bcl-2 conformation is recognized by an anti-Bcl-2 antibody raised against the Bcl-2 BH3 domain. To determine whether NuBCP-9 induced a Bcl-2 conformational change, flow cytometric assays were conducted which HEK293T cells transfected with Bcl-2 were exposed to NuBCPs and subsequently stained with the anti-Bcl-2/BH3 antibody.
Target sequence in this assay (P10415 whole entry): as the sequence (P10415 whole entry, species assumed) above

[5] = test system: MDA-MB435 breast carcinoma cells; experiment: MDA-MB435 tumors in SCID mice; format: in vivo
Experimental: Animal studies. Female SCID mice (6-week-old) (Tacomic) were injected with 10^6 MDA-MB435 breast carcinoma cells. Tumors were palpable on day 7. On days 10 and 13, test peptides (620 μg in 50 μL PBS) were injected into the tumor areas of 5 mice. Tumor volumes (1×w^2) were determined using calipers. No weight changes were observed. Established tumors in control mice were injected with test peptides and tumor tissues were excised and sectioned after 3 days. Tissues were fixed (10% buffered formalin), then rapidly paraffin-embedded. Apoptosis was detected by the TUNEL assay.

Bcl-2 [6] = molecular target: T1, Bcl-2; experiment: Competition assay of Nur77/ΔDBD binding with Bcl-2; parameters: expressed in transfected cells; host or cells: HEK293T
Experimental: Nur77/Bcl-2 interaction assays—Reporter gene assays using NurRE-tk-CAT in CV-1 cells, and GST pull-down assay were described previously (Li, et al. 2000 Science 289:1159-1164). For the mammalian two-hybrid assays, CV-1 cells were co-transfected with pcDNA-Gal4TAD-Nur77 or pcDNA-Gal4TAD-Nur77/ΔDBD and pcDNA-Gal4 DBD-Bcl-2/ΔTM along with a luciferase reporter gene driven by four copies of the Gal-4-binding site. The cells were harvested and reporter gene activity was measured. For Co-IP assays, HEK293T cells were transiently transfected with various expression plasmids using a modified calcium phosphate precipitation method (Wu et al, 1997) in the presence of caspase inhibitors (zVAD-fmk) to prevent degradation of Nur77 protein due to apoptosis. Cells were suspended in lysis buffer (50 mM Tris-HCl, PH7.4; 150 mM NaCl; 20 mM EDTA; 1% NP-40; 1 mM PMSF; 50 μg/ml Leupeptin; […] Aprotinin; 0.1 mM Na3VO4; and 1 mM DTT). Cells extracts were cleared by incubation with the Protein A/G plus Agarose beads (Santa Cruz) and then incubated with appropriate antibody and 30 μl of Protein A or G plus Agarose beads overnight at 4° C. […] Immunoreactive products were detected by chemiluminescence with an enhanced chemiluminescence system (ECL) (Amersham).
Target sequence in this assay (P10415 whole entry): as the sequence (P10415 whole entry, species assumed) above

breast cancer = experiment: Treatment of a patient diagnosed with breast cancer; format: in vivo; settings: intravenous dose at regular intervals over six weeks
Description: A patient diagnosed with breast cancer is selected for treatment with the D-NuBCP-9-r8 peptide. The patient is given a therapeutically effective intravenous dose of the peptide at regular intervals over a six week period. Following the end of the treatment period it is observed that the breast cancer has regressed.

acetyl------------fsrslhsllGXrrrrrrrr-amide (Ac-[dF][dS][dR][dS][dL][dH][dS][dL][dL]G[Ahx][dR][dR][dR][dR][dR][dR][dR][dR]-NH2; SMILES CC(=O)N[C@H](Cc1ccccc1)C(=O)N[C@H](CO)C(=O)N[C@H](CCCNC(=N)N)C(=O)N[C@H](CO)C(=O)N[C@H](CC(C)C)C(=O)N[C@H](Cc1c[nH]cn1)C(=O)N[C@H](CO)C(=O)N[C@H](CC(C)C)C(=O)N[C@H](CC(C)C)C(=O)NCC(=O)NCCCCCC(=O)N[C@H](CCCNC(=N)N)C(=O)N[C@H](CCCNC(=N)N)C(=O)N[C@H](CCCNC(=N)N)C(=O)N[C@H](CCCNC(=N)N)C(=O)N[C@H](CCCNC(=N)N)C(=O)N[C@H](CCCNC(=N)N)C(=O)N[C@H](CCCNC(=N)N)C(=O)N[C@H](CCCNC(=N)N)C(N)=O) [D-NuBCP-9-r8]
apoptotic function after Bcl-2 antisense oligonucleotides (H460 lung cancer cells [1]; Bcl-2 antisense oligonucleotides): attenuated | apoptotic effect after transfection of Bcl-2 siRNA (H460 lung cancer cells [1]; H460 cells, Bcl-2 siRNA vs control GFP siRNA): inhibited | precipitation of endogenous Bcl-2 by anti-Bcl-2/BH3 antibody (Bcl-2 [2]): precipitated | apoptotic effect (H460 lung cancer cells [3]): retained and even slightly enhanced | Bcl-2 immunofluorescence by anti-Bcl-2/BH3 antibody (Bcl-2 [4]; flow cytometry): strong Bcl-2 immunofluorescence | Bcl-2 staining by anti-Bcl-2/BH3 antibody (Bcl-2 [4]; fluorescence microscopy): strongly stained | growth of tumors ([5]; SCID mice, 620 μg injected into tumor areas on days 10 and 13, vs control NuBCP-9/AA-r8): dramatically suppressed | apoptosis of tumor cells in vivo ([5]; TUNEL assay): potently induced | binding of Nur77/ΔDBD with Bcl-2 in presence of peptide (Bcl-2 [6]): abrogated | breast cancer outcome after treatment (breast cancer): regressed

From patent publication US7745574B2, “Compounds that regulate apoptosis” (The Burnham Institute, priority 2005, dated 2010)
